In test [1] the target is T1, human GCN2 full-length protein (Homo sapiens, UniProt Q9P2K8).
T1 construct: purchased Carna Biosciences, Inc
Description: GCN2 enzyme inhibition assay (LanthaScreen TR-FRET). It counts as biochemical. The following applies: GCN2 enzyme inhibitory activity at compound concentration of 3 μM; Table 3-2; read-out: inhibitory rate. The procedure:
GCN2 enzyme was preserved at -70° C. and used. The GCN2 enzyme inhibitory activity of the test compound was measured by the LanthaScreenTR-FRET (Time Resolved Fluorescence Resonance Energy Transfer) method (manufactured by ThermoFisher). […] Then, GCN2 enzyme solution diluted with the assay buffer was added by 2 μL to each well. The enzyme solution was not added to a part of the wells to give a control group. After incubation at room temperature for 1 hr, 570 μM ATP solution containing 390 nM […] physiological protein substrate (ThermoFisher) was added by 2 μL. After reaction at room temperature for 1 hr, TR-FRET Dilution Buffer (ThermoFisher) containing 4 nM Terbium-labeled anti-elF2alpha [[…]] antibody (ThermoFisher) dissolved therein was added by 2 μL to each well. After standing at room temperature for 1 hr, time decomposition fluorescence measurement was performed on platereader Envision (manufactured by PerkinElmer).
For orientation: In TR-FRET formats the signal depends on donor and acceptor labels being close together.

Test [2] concerns osteosarcoma cell line U-2-OS. Kind of test: In vitro cell proliferation inhibition assay (CellTiter-Glo, low amino acid media). It counts as cell-based. Particulars: Homo sapiens, U2OS, 72 h, cell proliferation inhibitory rate, McCoy's 5A low amino acid media, Table 4-2. The procedure: A cell suspension (40 μL) (1000 cells/well) of osteosarcoma cell line U-2-OS obtained from ATCC (American Type Culture Collection) was seeded on a 384 plate using McCoy's 5A low amino acid media (amino acid content 25%). The seeded cells were incubated (37° C., 5% CO2) overnight to 24 hr at the longest. Each example compound was dissolved (10 mM) in DMSO, delivered to wells by using TECAN HP D300 (TECAN), and the plate was incubated for 72 hr (37° C., 5% CO2). A well without addition of compound was treated similarly as a control group. Celltiter-Glo (registered trade mark) Luminescent Cell Viability Assay reagent (Promega KK) equilibrated at room temperature was added (40 μL/well) to cells in each well before compound treatment (untreated group) and 72 hours after compound treatment. After incubation for 10 min, cell proliferation inhibitory rate was measured by the amount of ATP which is a cell viability marker. Luminescence of cells showing ATP amount was measured using ARVO MX (PerkinElmer). Based on the luminescence values of the untreatment group, the control group without addition of Example compound solution, and the treatment group with addition of Example compound, the cell proliferation inhibitory rate (%) of the test compound at a compound concentration of 100 nM was calculated by the following formula and the results thereof are shown in Tables 4-1, 4-2. Inhibitory rate (%)=(1−(luminescence value of treatment group−luminescence value of untreatment group)÷(luminescence value of control group−luminescence value of untreatment group))×100
A general note: ATP-based viability assays read luminescence as a measure of living cells.

T1 sequence (Q9P2K8 whole entry): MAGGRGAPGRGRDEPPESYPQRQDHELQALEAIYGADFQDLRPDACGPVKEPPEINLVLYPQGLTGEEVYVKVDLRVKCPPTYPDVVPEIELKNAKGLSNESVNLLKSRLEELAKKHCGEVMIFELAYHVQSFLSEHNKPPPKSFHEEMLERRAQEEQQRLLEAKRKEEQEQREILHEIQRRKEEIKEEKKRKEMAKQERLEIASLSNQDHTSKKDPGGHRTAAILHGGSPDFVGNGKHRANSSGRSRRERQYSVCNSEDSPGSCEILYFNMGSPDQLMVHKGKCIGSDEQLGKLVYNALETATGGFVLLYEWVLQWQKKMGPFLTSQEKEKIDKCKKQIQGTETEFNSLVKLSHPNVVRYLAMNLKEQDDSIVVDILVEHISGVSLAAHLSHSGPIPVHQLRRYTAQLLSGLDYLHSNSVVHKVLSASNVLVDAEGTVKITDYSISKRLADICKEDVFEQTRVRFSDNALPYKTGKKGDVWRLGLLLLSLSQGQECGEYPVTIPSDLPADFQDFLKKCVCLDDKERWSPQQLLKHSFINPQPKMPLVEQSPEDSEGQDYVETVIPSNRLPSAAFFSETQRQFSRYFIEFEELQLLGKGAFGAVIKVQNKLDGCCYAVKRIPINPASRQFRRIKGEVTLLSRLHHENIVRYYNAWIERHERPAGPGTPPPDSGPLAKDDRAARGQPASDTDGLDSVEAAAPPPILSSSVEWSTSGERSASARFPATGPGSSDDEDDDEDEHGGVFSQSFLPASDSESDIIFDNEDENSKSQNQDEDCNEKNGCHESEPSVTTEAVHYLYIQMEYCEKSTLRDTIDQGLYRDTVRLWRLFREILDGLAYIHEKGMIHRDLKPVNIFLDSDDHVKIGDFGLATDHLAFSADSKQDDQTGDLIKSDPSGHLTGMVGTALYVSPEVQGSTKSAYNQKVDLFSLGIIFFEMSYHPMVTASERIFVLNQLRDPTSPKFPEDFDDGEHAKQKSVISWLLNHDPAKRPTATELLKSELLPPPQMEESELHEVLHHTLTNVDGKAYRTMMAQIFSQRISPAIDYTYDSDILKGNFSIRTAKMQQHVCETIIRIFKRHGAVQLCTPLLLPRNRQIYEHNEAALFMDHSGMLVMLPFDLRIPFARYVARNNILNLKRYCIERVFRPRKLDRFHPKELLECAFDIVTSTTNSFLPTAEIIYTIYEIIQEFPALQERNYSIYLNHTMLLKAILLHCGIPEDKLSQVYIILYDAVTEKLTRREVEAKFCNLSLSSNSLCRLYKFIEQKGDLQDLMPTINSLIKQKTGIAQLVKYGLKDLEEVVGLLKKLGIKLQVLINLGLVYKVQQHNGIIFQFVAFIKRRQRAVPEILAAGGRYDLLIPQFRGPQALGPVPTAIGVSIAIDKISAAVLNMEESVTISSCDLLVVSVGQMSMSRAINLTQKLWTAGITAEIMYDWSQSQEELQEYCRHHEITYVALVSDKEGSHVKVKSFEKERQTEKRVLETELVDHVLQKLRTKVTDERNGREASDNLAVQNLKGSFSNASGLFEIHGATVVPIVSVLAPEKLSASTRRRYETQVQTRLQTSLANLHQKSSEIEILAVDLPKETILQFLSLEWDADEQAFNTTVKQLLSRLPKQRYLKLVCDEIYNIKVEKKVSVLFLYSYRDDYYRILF

Regarding `COc1c(CO)cc(Cl)cc1S(=O)(=O)Nc1ccc(F)c(C#Cc2cnc(N)nn2)c1F` [Example 130, N-(3-((3-amino-1,2,4-triazin-6-yl)ethynyl)-2,4-difluorophenyl)-5-chloro-3-(hydroxymethyl)-2-methoxybenzenesulfonamide], the inhibition at 3 µM in test [1] was 99%. The compound also registered an inhibition at 0.1 µM in test [2] of 68%.
As for `CCNc1ncc(C#Cc2c(F)ccc(NS(=O)(=O)c3cc(Cl)cc(CO)c3OC)c2F)cn1` [Example 137, 5-chloro-N-(3-((2-(ethylamino)pyrimidin-5-yl)ethynyl)-2,4-difluorophenyl)-3-(hydroxymethyl)-2-methoxybenzenesulfonamide], the inhibition at 3 µM in test [1] turned out to be 99%. In test [2], this compound yielded an inhibition at 0.1 µM of 75%.
For `COc1c(CO)cc(Cl)cc1S(=O)(=O)Nc1ccc(F)c(C#Cc2cnc(NC3CC3)nc2)c1F` [Example 138, 5-chloro-N-(3-((2-(cyclopropylamino)pyrimidin-5-yl)ethynyl)-2,4-difluorophenyl)-3-(hydroxymethyl)-2-methoxybenzenesulfonamide] the same measures were 99% and 87%.
For `COc1c(CO)cc(Cl)cc1S(=O)(=O)Nc1ccc(F)c(C#Cc2cnc(NC3COC3)nc2)c1F` [Example 140, 5-chloro-N-(2,4-difluoro-3-((2-(oxetan-3-ylamino)pyrimidin-5-yl)ethynyl)phenyl)-3-(hydroxymethyl)-2-methoxybenzenesulfonamide] the same measures were 99% and 76%.
For `COc1c(CO)cc(Cl)cc1S(=O)(=O)Nc1ccc(F)c(C#Cc2cnc(NC3CCOC3)nc2)c1F` (stereo not drawn) [Example 141, 5-chloro-N-(2,4-difluoro-3-((2-(tetrahydrofuran-3-ylamino)pyrimidin-5-yl)ethynyl)phenyl)-3-(hydroxymethyl)-2-methoxybenzenesulfonamide], the inhibition at 3 µM in test [1] came to 99%. The compound further registered an inhibition at 0.1 µM in test [2] of 75%.
The matching figures for `COc1c(CO)cc(Cl)cc1S(=O)(=O)Nc1ccc(F)c(C#Cc2cnc(NCC3CCOC3)nc2)c1F` (stereo not drawn) [Example 145, 5-chloro-N-(2,4-difluoro-3-((2-((tetrahydrofuran-3-ylmethyl)amino)pyrimidin-5-yl)ethynyl)phenyl)-3-(hydroxymethyl)-2-methoxybenzenesulfonamide]: 99% and 69%.
The matching figures for `COc1c(CO)cc(Cl)cc1S(=O)(=O)Nc1ccc(F)c(C#Cc2cnc(NCCO)nc2)c1F` [Example 149, 5-chloro-N-(2,4-difluoro-3-((2-((2-hydroxyethyl)amino)pyrimidin-5-yl)ethynyl)phenyl)-3-(hydroxymethyl)-2-methoxybenzenesulfonamide]: 99% and 70%.
The matching figures for `COc1c(CO)cc(Cl)cc1S(=O)(=O)Nc1ccc(F)c(C#Cc2cnc(N[C@H](C)CO)nc2)c1F` [Example 150, 5-chloro-N-(2,4-difluoro-3-((2-(((2R)-1-hydroxypropan-2-yl)amino)pyrimidin-5-yl)ethynyl)phenyl)-3-(hydroxymethyl)-2-methoxybenzenesulfonamide]: 99% and 77%.
As for `COc1c(CO)cc(Cl)cc1S(=O)(=O)Nc1ccc(F)c(C#Cc2cnc(N[C@H]3CC[C@H](O)CC3)nc2)c1F` [Example 153, 5-chloro-N-(2,4-difluoro-3-((2-((trans-4-hydroxycyclohexyl)amino)pyrimidin-5-yl)ethynyl)phenyl)-3-(hydroxymethyl)-2-methoxybenzenesulfonamide], the inhibition at 3 µM in test [1] is 99%. The inhibition at 0.1 µM in test [2] was determined as 78%.
For `Cc1ncc(Cl)cc1S(=O)(=O)Nc1ccc(F)c(C#Cc2cnc(N)nn2)c1F` [Example 158, N-(3-((3-amino-1,2,4-triazin-6-yl)ethynyl)-2,4-difluorophenyl)-5-chloro-2-methylpyridine-3-sulfonamide] the same measures were 99% and 43%.
For `Nc1ncc(C#Cc2c(F)ccc(NS(=O)(=O)c3cc(Cl)cc4c3OCC4O)c2F)cn1` (stereo not drawn) [Example 159, N-(3-((2-aminopyrimidin-5-yl)ethynyl)-2,4-difluorophenyl)-5-chloro-3-hydroxy-2,3-dihydro-1-benzofuran-7-sulfonamide] the same measures were 99% and 60%.
The matching figures for `Nc1ncc(C#Cc2c(F)ccc(NS(=O)(=O)c3cc(Cl)cnc3OC(F)F)c2F)cn1` [Example 162, N-(3-((2-aminopyrimidin-5-yl)ethynyl)-2,4-difluorophenyl)-5-chloro-2-(difluoromethoxy)pyridine-3-sulfonamide]: 99% and 35%.
`Cc1ncc(Cl)cc1S(=O)(=O)Nc1ccc(F)c(C#Cc2cnc(Nc3cnn(C)c3)nc2)c1F` [Example 163, 5-chloro-N-(2,4-difluoro-3-((2-((1-methyl-1H-pyrazol-4-yl)amino)pyrimidin-5-yl)ethynyl)phenyl)-2-methylpyridine-3-sulfonamide]: the inhibition at 3 µM in test [1] came out at 100%. The inhibition at 0.1 µM in test [2] amounted to 88%.
Regarding `Nc1ncc(C#Cc2c(F)ccc(NS(=O)(=O)c3cc(Cl)cn4c(Cl)cnc34)c2F)cn1` [Example 165, N-(3-((2-aminopyrimidin-5-yl)ethynyl)-2,4-difluorophenyl)-3,6-dichloroimidazo[1,2-a]pyridine-8-sulfonamide], the inhibition at 3 µM in test [1] turned out to be 96%. In addition, in test [2], the inhibition at 0.1 µM amounted to 27%.
For `COc1c(CO)cc(Cl)cc1S(=O)(=O)Nc1ccc(F)c(C#Cc2cnc(NC3CC3)nn2)c1F` [Example 168, 5-chloro-N-(3-((3-(cyclopropylamino)-1,2,4-triazin-6-yl)ethynyl)-2,4-difluorophenyl)-3-(hydroxymethyl)-2-methoxybenzenesulfonamide], the inhibition at 3 µM in test [1] was 99%. For the same compound, the inhibition at 0.1 µM in test [2] was 57%.
The matching figures for `CNc1ncc(Cl)cc1S(=O)(=O)Nc1ccc(F)c(C#Cc2cnc(N)nc2)c1F` [Example 171, N-(3-((2-aminopyrimidin-5-yl)ethynyl)-2,4-difluorophenyl)-5-chloro-2-(methylamino)pyridine-3-sulfonamide]: 100% and 82%.
With `Nc1ncc(C#Cc2c(F)ccc(NS(=O)(=O)c3cc(Cl)cc4ccoc34)c2F)cn1` [Example 173, N-(3-((2-aminopyrimidin-5-yl)ethynyl)-2,4-difluorophenyl)-5-chloro-1-benzofuran-7-sulfonamide], the inhibition at 3 µM in test [1] was determined as 99%. Further, the inhibition at 0.1 µM in test [2] turned out to be 76%.
For `COc1ncc(Cl)cc1S(=O)(=O)Nc1ccc(F)c(C#Cc2cnc(N[C@H]3CC[C@H](O)CC3)nc2)c1F` [Example 174, 5-chloro-N-(2,4-difluoro-3-((2-((trans-4-hydroxycyclohexyl)amino)pyrimidin-5-yl)ethynyl)phenyl)-2-methoxypyridine-3-sulfonamide], the inhibition at 3 µM in test [1] came out at 99%. Further, the inhibition at 0.1 µM in test [2] came out at 83%.
As for `COc1ncc(Cl)cc1S(=O)(=O)Nc1ccc(F)c(C#Cc2cnc(N[C@H](C)CO)nc2)c1F` [Example 175, 5-chloro-N-(2,4-difluoro-3-((2-(((2R)-1-hydroxypropan-2-yl)amino)pyrimidin-5-yl)ethynyl)phenyl)-2-methoxypyridine-3-sulfonamide], the inhibition at 3 µM in test [1] came out at 99%. In test [2], this compound registered an inhibition at 0.1 µM of 75%.
In the case of `O=S(=O)(Nc1ccc(F)c(C#Cc2cnc(N[C@H]3CC[C@H](O)CC3)nc2)c1F)c1cc(Cl)cc(CO)c1Cl` [Example 176, 2,5-dichloro-N-(2,4-difluoro-3-((2-((trans-4-hydroxycyclohexyl)amino)pyrimidin-5-yl)ethynyl)phenyl)-3-(hydroxymethyl)benzenesulfonamide], in test [1], the inhibition at 3 µM is 100%. In addition, in test [2], the inhibition at 0.1 µM amounted to 77%.
As to `O=S(=O)(Nc1ccc(F)c(C#Cc2cnc(N[C@H]3CC[C@H](O)CC3)nn2)c1F)c1cc(Cl)cc(CO)c1Cl` [Example 177, 2,5-dichloro-N-(2,4-difluoro-3-((3-((trans-4-hydroxycyclohexyl)amino)-1,2,4-triazin-6-yl)ethynyl)phenyl)-3-(hydroxymethyl)benzenesulfonamide], the inhibition at 3 µM in test [1] was 100%. The inhibition at 0.1 µM in test [2] came out at 72%.

The record behind these values is patent US10696651B2, “Heterocyclic compound” (Takeda Pharmaceutical Company Limited, priority 2016, dated 2020).
